# In publication PMC5618191 (Toxins, 2017):
# Where two headings read alike, the source gives them in different places.
# Columns and labels:
# [1] = system: NIH/3T3 murine non-malignant fibroblasts; assay: Cell viability assay (MTT, 72 h); assay type: cell-based, mouse
# Procedure: (§1) For the cell lines KB-3-1 and SW480 2 × 10^3 cells, for NIH/3T3, CT-26, HaCaT, and GH354 cells 3 × 10^3 cells and for ME-180 and SW620 cells 4 × 10^3 cells were seeded into 96-well pates and incubated at 37 °C (5% CO2) overnight. […] For higher cell confluency, NIH/3T3, CT-26, HaCaT, KB-3-1, and SW480 cells were grown to a cell density of approximately 50–60% before treatment. […] The percentage of viable cells was detected after incubation with 3-(4,5-dimethylthiazol-2-yl)-2,5-diphenyltetrazolium bromide (MTT) at 37 °C for 1–4 h, depending on the cell line, according to the user manual (EZ4U, Biomedica, Vienna, Austria). […] All experiments were conducted using full-growth media with 10% FBS in triplicate and repeated three times. The cell confluency was analyzed by Image J 1.50i (NIH, New York, NY, USA).
# [2] = system: CT-26 murine colon carcinoma cells; assay: Cell viability assay (MTT, 72 h); assay type: cell-based, mouse
# Procedure: as §1
# [3] = system: KB-3-1-derived tumor xenografts; assay: KB-3-1 xenograft mouse model; assay type: in vivo, CB-17/SCID mice
# Procedure: (§2) For the allograft experiment, 4 × 10^5 CT-26 cells were resuspended in 50 µL RPMI medium and injected subcutaneously into the right flank of eight, 6–8 weeks old, male BALB/c mice that were obtained from Harlan Laboratories (San Pietro al Natisone, Italy). Likewise, in the xenograft experiment, 1 × 10^6 KB-3-1 cells in 50 µL RPMI medium were injected subcutaneously into the right flank of eight, 6–8 weeks old, male CB-17/IcrHanHsd-Prkdc severe combined immunodeficiency (SCID) mice. Of each group, four animals were randomly assigned to the control or to the treatment group. […] All animals were kept under pathogen-free conditions and all procedures were performed in a laminar flow hood. Effects of the treatment were assessed by daily recording of tumor size with a microcaliper and parameters indicating the animals’ overall health condition (e.g., body weight, fatigue, grooming, ragged coat, food and fluid consumption). Tumor volumes (mm^3) were calculated using the formula: (length × width^2)/2. […] The tumor mass was weighed and organs and tissues for immunohistochemical experiments were fixed in 4% formalin/PBS (Roti®-Histofix 4%, Roth, Karlsruhe, Germany) or shock-frozen in liquid nitrogen and stored at −80 °C until the samples were prepared for LC-MS/MS analysis. The experiments were approved by the ethics committee of the Austrian Federal Ministry of Science, Research, and Economy (BMWF-66.009/0084-II/3b/2013, date of approval: 5 September 2013) and performed in line with the Arrive guidelines for animal care and protection and with guidelines from the Austrian Animal Science Association and from the Federation of European Laboratory Animal Science Associations (FELASA).
# (§3) From each mouse from both the control (n = 4) and the treatment group (n = 4), tissue samples were formalin-fixed, paraffin-embedded and used to prepare serial 3 µm sections. Then, slices were deparaffinized and rehydrated. To evaluate the percentages of interphase/resting, mitotic and dead (apoptotic/necrotic) cell fractions in tumor specimens, sections were stained with hematoxylin and eosin (H/E) by means of standard protocols. Numbers of the three cell fractions were analyzed in a blinded setup in at least four images of H/E-stained tumor sections, taken under a 40 × objective microscope lens. In addition, for the quantification of areas of dead tumor tissue in whole tumor sections, the H/E-stained slides were scanned with a Pannoramic MIDI automated slide scanner (3[…], Budapest, Hungary) and evaluated using Definiens’ TissueStudio® 4.0 (Definiens®, Munich, Germany) software and Pannoramic Viewer (3[…]) software. To evaluate the fraction of apoptotic cells in tumor sections a terminal deoxynucleotidyl transferase (TdT) deoxyuridine triphosphate (dUTP) nick end labeling (TUNEL) assay was performed applying the In Situ Cell Death Kit TMR (red) (Roche Diagnostics, Mannheim, Germany) according to the manufacturer’s protocol. Afterwards, slides were covered with Vectashield anti-fade mounting medium with DAPI (H-1200, Vector Laboratories, Burlingame, CA, USA). Slides were protected from light until they were scanned with a Pannoramic MIDI automated slide scanner (3[…]) and analyzed via digital image analysis software (Definiens’ TissueStudio® 4.0, Definiens®). In order to visualize the proliferative cell fraction (cells in the interphase or M-phase) of tumors, KB-3-1 tumor sections were stained with the Ki-67 (clone MiB-1) antibody from DAKO (1:100; Glostrup, Denmark) and for CT-26 tumor sections with Ki-67 (1:100; D3B5, rabbit, Cell Signaling, Danvers, USA). The primary antibody was incubated for 30 min at room temperature in a humid chamber and after rinsing the slides for 3 min in PBS + 0.1% Tween, the UltraVision LP detection system was applied according to the manufacturer’s instructions (Thermo Fisher Scientific, Massachusetts, MA, USA). Sections were counterstained with hematoxylin. […]
# [4] = system: CT-26-derived tumor allografts; assay: CT-26 allograft mouse model; assay type: in vivo, BALB/c mice
# Procedure: as §2, §3
# [5] = NIH/3T3, sparse (5–10% confluency), 72 h
# [6] = CT-26, sparse (5–10% confluency), 72 h
substance,measurement,setting,value
beauvericin,Viability of non-malignant cells,"[1]; 1 µM, higher density (50–60%), murine models",no reduction of viability
same,IC50,"[1]; NIH-3T3, higher density (50–60% confluency), 72 h, read-out: IC50 value",9400 nM
same,Mean IC25 ± SD,[1]; [5],1200 ± 600 nM
same,Mean IC75 ± SD,[1]; [5],6500 ± 700 nM
same,IC50,"[1]; NIH/3T3, sparse (5–10% confluency), 72 h, read-out: Mean IC50 ± SD",3100 ± 200 nM
same,IC50 higher for non-malignant NIH/3T3 as compared to CT-26,[1]; sparse conditions,1.7 fold
same,IC75 higher for non-malignant NIH/3T3 as compared to CT-26,[1]; sparse conditions,2.4 fold
same,Tumor cell viability,"[2]; 0.5 µM, higher density (50–60%), murine models",significantly reduced
same,Mean IC25 ± SD,[2]; [6],1400 ± 200 nM
same,Mean IC75 ± SD,[2]; [6],2700 ± 500 nM
same,IC50,"[2]; CT-26, sparse (5–10% confluency), 72 h, read-out: Mean IC50 ± SD",1800 ± 200 nM
same,Mean tumor weight lowered,"[3]; 5 mg/kg bw/day, day 16, vs control, p = 0.152",31.2%
same,Reduction in tumor volume,"[3]; 5 mg/kg bw/day, two cycles, day 16",31.3%
same,Percentages of apoptotic/necrotic cells within viable areas (H/E),[3]; treated vs control,almost no difference
same,Increase of TUNEL-positive cells,"[3]; treated vs control, p = 0.143",1.5 fold
same,Increase of proportion of necrotic areas in H/E-stained whole tumor sections,"[3]; treated vs control, significant",34.2%
same,Ki-67-positive cells,"[3]; treatment group, tumor sections, control 99.5 ± 0.6%",98.8 ± 0.6%
same,Mitotic cells in H/E-stained tumor sections,"[3]; treatment group, control 1.5 ± 0.4%",1.3 ± 0.3%
same,Average tumor weight reduction,"[4]; 5 mg/kg bw/day i.p., day 14, vs untreated, p = 0.057",60%
same,Reduction of mean tumor volume,"[4]; 5 mg/kg bw/day i.p., two cycles, day 14, vs solvent control",52.8%
same,Higher rate of scattered cells with signs of cell death (apoptosis or necrosis) in viable tumor regions,"[4]; H/E, treated vs control, p < 0.05",22%
same,Ki-67-positive (proliferating) tumor cells,"[4]; treated group, tumor sections, control 66.9 ± […]",81.6 ± 3.7%
same,Mitotic cells in H/E-stained tumor sections,"[4]; treated group, control 0.4 ± 0.1%",0.3 ± 0.2%
same,Increase of average apoptosis rate (TUNEL) in viable tumor areas,"[4]; treated versus untreated, p = 0.065",2.1 fold
same,Increase of necrotic areas in H/E-stained whole tumor sections,"[4]; treated vs control, p < 0.05",2.2 fold
